ChEMBL document CHEMBL1143488, “Bis(indole) alkaloids as sortase A inhibitors from the sponge Spongosorites sp” (Bioorg Med Chem Lett, 2005)
In brackets after ≈: the same amount, converted by molar mass.

How the values were obtained:
Sortase A = target: T1, Sortase A (Staphylococcus aureus, UniProt Q9S446); experiment: Inhibitory activity against Sortase A from Staphylococcus aureus
T1 sequence (Q9S446 whole entry): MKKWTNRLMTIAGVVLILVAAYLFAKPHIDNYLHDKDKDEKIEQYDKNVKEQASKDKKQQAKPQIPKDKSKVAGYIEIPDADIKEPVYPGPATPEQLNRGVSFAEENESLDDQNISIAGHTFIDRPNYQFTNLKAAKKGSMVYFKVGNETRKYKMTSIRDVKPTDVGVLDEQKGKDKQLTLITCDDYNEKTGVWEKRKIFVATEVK

Staphylococcus aureus = experiment: Minimum inhibitory concentration against Staphylococcus aureus Newman strain; format: functional

| SMILES | IC50 (Sortase A) [µM] | MIC (Staphylococcus aureus) [µg/mL] |
| --- | --- | --- |
| O=C1N[C@@H](c2c[nH]c3cc(Br)ccc23)CN[C@@H]1c1c[nH]c2cc(Br)ccc12 | > 205 | 12.5 (≈ 25.6 µM) |
| O=C1N[C@H](c2c[nH]c3cc(Br)ccc23)CN=C1c1c[nH]c2cc(Br)ccc12 | 178 | 3.12 (≈ 6.42 µM) |
| O=C1NC[C@@H](c2c[nH]c3cc(Br)ccc23)N=C1c1c[nH]c2cc(Br)ccc12 | 142 | 6.25 (≈ 12.9 µM) |
| O=C1N[C@H](c2c[nH]c3cc(Br)ccc23)CN=C1c1c[nH]c2ccccc12 | 83.6 | 6.25 (≈ 15.3 µM) |
| O=C1NC[C@@H](c2c[nH]c3cc(Br)ccc23)N=C1c1c[nH]c2ccccc12 [(R)-6'-DEBROMOHAMACANTHIN B] | > 246 | 100 (≈ 246 µM) |
| O=C(c1ncc(-c2c[nH]c3cc(Br)ccc23)[nH]1)c1c[nH]c2ccccc12 [BROMODEOXYTOPSENTIN] | 48 | – |
| O=C(c1nc(-c2c[nH]c3cc(Br)ccc23)c[nH]1)c1c[nH]c2cc(O)ccc12 [BROMOTOPSENTIN] | 39.6 | 25 (≈ 59.3 µM) |
| O=C(c1nc(-c2c[nH]c3ccccc23)c[nH]1)c1c[nH]c2ccccc12 [DEOXYTOPSENTIN] | 48 | – |
| CC[C@H](CC[C@@H](C)[C@H]1CC[C@H]2[C@@H]3CC=C4C[C@@H](O[C@@H]5O[C@H](CO)[C@@H](O)[C@H](O)[C@H]5O)CC[C@]4(C)[C@H]3CC[C@]12C)C(C)C [SITOGLUSIDE] | 31.7 | 200 (≈ 347 µM) |
